Holding throughout (type): in vivo, mouse
Data set [1] has as its system C57BL/6J mice. Put plainly: 55 °C warm-water tail-withdrawal assay (antinociception). The protocol: For intracerebroventricular (i.c.v.) administration, the 1968-series compounds were dissolved in dimethyl sulfoxide (DMSO), followed by the addition of sterile saline (0.9%) so that the final vehicle was 50% DMSO and 50% saline, and the i.c.v. injections were performed as described previously. For per os (p.o.) administration, 1968-4 and 1968-22 were administered in 10% Ethanol/10%Tween-80/80% 0.9% saline. All solutions for animal administration were prepared fresh daily.
Antinociception was calculated according to the following formula: % antinociception = 100 × (test latency − control latency)/(15 − control latency). Tail-withdrawal data points are the means of 8–16 mice, unless otherwise indicated, with SEM shown by error bars.
All dose–response lines were analyzed by regression, and ED50 (effective dose producing 50% antinociception) values and 95% confidence intervals (C.I.) were determined using individual data points from graded dose–response curves with Prism 8.0 software (GraphPad, La Jolla, CA, USA). Percent antinociception was used to determine within group effects and to allow comparison to baseline latency in tail-withdrawal experiments. The statistical significance of differences between ED50 values was determined by evaluation of the ED50 value shift via nonlinear regression modeling with Prism software. Significant differences in behavioral data were analyzed by ANOVA (one-way or two-way with repeated measures (RM), as appropriate). Significant results were further analyzed with Sidak’s, Tukey’s, or Dunnett’s multiple comparison post hoc tests, as appropriate. Data for conditioned place preference experiments were analyzed by two-way RM ANOVA, with analyses examining the main effect of the conditioned place preference phase (e.g., pre- or post-conditioning) and the interaction of drug pretreatment. Significant effects were further analyzed using Sidak’s HSD post hoc testing. All data are presented as mean ± SEM, with significance set at p < 0.05.

Data set [2] relates to C57BL/6J mice. The data set is described as follows: Opioid receptor involvement in antinociception (antagonist pretreatment, tail-withdrawal assay). The protocol: Pretreatment of mice with the opioid antagonist naloxone (10 mg/kg, s.c., −15 min) was used to assess receptor contribution to the observed antinociception induced by maximal tested doses of each 1968-series compound tested.
The opioid receptor involvement in the agonist activity of the heterocyclic peptidomimetics was determined by pretreating mice with a single dose of β-funaltrexamine (β-FNA, 10 mg/kg, i.p.) or nor-BNI (10 mg/kg, i.p.) 24 h in advance of administration of a dose of 1968-series compound.

For data set [3], the system named is C57BL/6J mice. Put plainly: Respiration rate in CLAMS/Oxymax system. As to conditions: i.c.v. The procedure:
Respiration rates (in breaths per minute) and animal locomotive activity (as ambulations) were assessed using the Oxymax/CLAMS system (Columbus Instruments, Columbus, OH), as described previously. Mice were habituated to their individual sealed housing chambers for 60 min before testing. Mice were administered 1968-22 (0.3–100 nmol, i.c.v.), morphine (100 nmol, i.c.v.), or vehicle, as indicated, and five min later confined to the CLAMS testing chambers. Pressure monitoring within the sealed chambers measured frequency of respiration. Infrared beams located in the floor measured locomotion as number of beam breaks. Respiration and locomotive data were averaged over 20 min periods for 120 min post-injection of the test compound. Data are presented as % vehicle response ± SEM, ambulation or breaths per minute.

Data set [4] deals with C57BL/6J mice. The data set is described as follows: Conditioned place preference / aversion. As to conditions: 0.1, 1 or 10 nmol, i.c.v.; two days of place conditioning.

“Also recorded” adds a separate entry of the source.

With `Cc1cc(O)cc(C)c1C[C@H]1CN([C@@H](Cc2c(C)cc(O)cc2C)CN2C(=N)NC[C@@H]2C)C(=N)N1` [1968-22], the “antinociception after oral administration (in words)” value in the data set with C57BL/6J mice [1] (10 mg/kg, p.o.) is “significant antinociception”. The “time of peak antinociception after i.c.v. administration” value with C57BL/6J mice [1] (i.c.v.) is on record as 20 min. Also, the “ED50 (and 95% Confidence Interval (C.I.)) Values, i.c.v. (nmol)” value in the data set with C57BL/6J mice [1] (i.c.v., antinociception at peak response, mice, * ED50 estimated where maximum antinociception not achieved) is 0.011 (0.005–0.026) nmol. Further, in the data set with C57BL/6J mice [1] (i.c.v., maximum doses tested), the “duration of significant antinociception” value is on record as 70 min. Also, the “effect of naloxone pretreatment on antinociception” value in the data set on C57BL/6J mice [2] (naloxone 10 mg/kg, s.c., −15 min, maximal tested i.c.v. dose of compound) is given as “most susceptible to antagonism by naloxone; also recorded: blocked fully”. Moreover, the “effect of naltrindole (DOR antagonist) pretreatment on antinociception” value in the data set on C57BL/6J mice [2] (naltrindole 20 mg/kg, i.p., −20 min, 1968-16 30 nmol or 1968-22 0.3 nmol, i.c.v.) is recorded as “significantly antagonized”. For the same compound, the “effect of nor-BNI (KOR antagonist) pretreatment on antinociception” value in the data set on C57BL/6J mice [2] (nor-BNI 10 mg/kg, i.p., −24 h, 1968-16 30 nmol or 1968-22 0.3 nmol, i.c.v.) is reported as “significantly antagonized”. The “effect of β-FNA (MOR antagonist) pretreatment on antinociception” value with C57BL/6J mice [2] (β-FNA 10 mg/kg, i.p., −24 h, 1968-16 30 nmol or 1968-22 0.3 nmol, i.c.v.) is given as “significantly antagonized”. Moreover, the “effect on respiration rate vs vehicle” value was “increases in respiration rates” in the data set on C57BL/6J mice [3] (100 nmol) and “did not have any significant effect” in the data set on C57BL/6J mice [3] (0.3, 1 or 10 nmol). For the same compound, the place conditioning result in the data set on C57BL/6J mice [4] is on record as “no significant preference or aversion”.

Source of the values: publication PMC9455983 (International Journal of Molecular Sciences, 2022).
